Test results as given in US20260272923A1, “NONSENSE MEDIATED DECAY INHIBITOR COMPOUNDS” (The Johns Hopkins University, priority 2023, published 2026).

Assays:
[1] = tested on: nonsense mediated decay (NMD); experiment: NCI-H358 and LS180 xenograft tumors in NOD-SCID mice, mutant RNA transcripts and tolerability; type: in vivo
[2] = tested on: NCI-H358 and LS180 cells; experiment: MHC class I HLA presentation of mutant specific peptides by quantitative HPLC-Mass Spectrometry; type: cell-based; details: 24 hours in-vitro, pan-HLA immunoprecipitation
Procedure: Downregulating mutated genes with frame shifts via NMD is one mechanism employed by cancer cells to avoid immune surveillance. To confirm the small molecule could alter the immune landscape of a tumor, cell surface presentation of known mutant proteins was assessed in NCI-H358 and LS180 cells. Cells were treated in-vitro for 24 hours with DMSO or the compound of Formula I in duplicate, cross linked and immunoprecipitated with pan-HLA antibodies to obtain cell surface MHC presented peptides. 187 mutation specific peptides were initially identified that could be potentially presented by using the union of NetMHC and Predictor of Immunogenic Epitopes (PRIME) predictions. These predictions were tested by performing HPLC Mass Spectromety (MS) on cells that were treated in-vitro for 24 hours with DMSO or the compound of Formula I, cross linked and immunoprecipitated with pan-HLA antibodies to obtain cell surface MHC presented peptides. Based on those results, heavy isotope labeled peptides were designed for 14 peptides from NCI-H358, and 24 peptides from LS180 cells with high confidence of MS detection. These heavy labeled peptides were then used as internal standard to perform quantitative HPLC-Mass Spectrometry. […] This is consistent with re-expression of mutant protein shown previously by western blot (FIGS. 3C and 4D). […]

[3] = tested on: NCI-H716 and NCI-2228 cell lines with and without HLA-A24 expression; experiment: Luciferase cell killing co-culture assay; type: cell-based; details: with human CD8+ T-cells and bispecific antibody
Procedure: To determine whether this relief of repression is targetable, a bispecific antibody targeting wild type TP53 and CD3 was employed. […] To assess if these novel antigens could be utilized for immune driven cell specific killing, NCI-H716 and NCI-2228 cell lines with and without HLA-A24 expression were labeled with luciferase. […] To establish this effect remained in-vivo, NCI-H716 cells expressing HLA-A24 and luciferase were placed orthotopically in NSG mice. Tumor size was measured by luciferase readings via bioluminescence imaging (BLI).

[4] = Physical properties related to solubility; type: physicochemical; details: compared with previously made SMG1 specific inhibitors
[5] = tested on: LLC (Lewis Lung Cancer); experiment: Syngeneic LLC tumor mouse model; type: in vivo, mice
Source text: Murine RENCA (renal) and LLC (Lewis Lung Cancer) cell lines were chosen as they harbor a large number of out of frame indel mutations based on whole exome DNA sequencing (WES) (Table SX-RENCA and LLC mutations). It was confirmed that treatment of these cell lines could stop NMD mediated repression of mutant RNA, and induced expression of exogenous genes controlled by NMD by real time PCR. […]

[6] = tested on: melanoma line B16-F10; experiment: Syngeneic B16-F10 melanoma model; type: in vivo
[7] = tested on: NMD targeted mutant protein (EXOC1, SPTAN1); experiment: Western blot of mutant proteins in NCI-H358 and LS180 cells; type: cell-based; details: NCI-H358 and LS180
Source text: (§1) It was next sought to evaluate whether LY3023414 could relieve repression of indel containing transcripts in cancer cells. The microsatellite stable NCI-H358 and microsatellite instable LS180 lung and colorectal cancer cell lines were chosen respectively. Nearly 40% of heterozygous indel and 25% of nonsense single base-pair mutation containing genes show increased expression of their mutant allele when treated with LY3023414 when evaluated by RNA sequencing (FIG. 2A). […] Heterozygous single nucleotide polymorphism (SNP) Ring Finger Protein 43 (RNF43) and drosha ribonuclease […] (DROSHA) served as controls, and allele ratios remain unchanged with treatment (FIG. 2B). To investigate for changes at the protein level, NCI-H358 cells were treated for 24 hours with either LY3023414 or DMSO.
(§2) Analyzing a wider set of 21 NMD sensitive genes from the RNA-Seq analysis in LS180 confirmed that LY3023414 and SMG1 specific inhibitor increase the same 18 genes with a greater than 80% re-expression rate, in both cell lines. […] As SMG1 inhibition is an off target effect for LY3023414, the concentrations used in this study may result in inhibition of a number of different kinases.
(§3) To confirm disruption of downstream signaling of SMG1, a western blot was performed with phosphorylation specific antibodies for UPF1.

[8] = tested on: RENCA (renal); experiment: Syngeneic RENCA tumor mouse model; type: in vivo, mice
Procedure: Confident NMD inhibition with the compound of Formula I was leading to in-vivo changes to the tumor and its immune environment and it was evaluated whether these alterations could be taken advantage of in an immune competent system. Murine RENCA (renal) and LLC (Lewis Lung Cancer) cell lines were chosen as they harbor a large number of out of frame indel mutations based on whole exome DNA sequencing (WES) (Table SX-RENCA and LLC mutations). It was confirmed that treatment of these cell lines could stop NMD mediated repression of mutant RNA, and induced expression of exogenous genes controlled by NMD by real time PCR. Cells were placed in the mammary fat pad of C57BL/6N (LLC also known as LL2) and BALB/c (RENCA) mice, randomly sorted animals after tumors became palpable ensuring to balance the tumor size of each group, and then treated with vehicle or the compound of Formula I (FIG. 6A).

[9] = tested on: NCI-H716 and NCI-2228; experiment: Interferon gamma ELISA in co-culture with human CD8+ T-cells and TP53-CD3 bispecific antibody; type: cell-based
[10] = molecular target: SMG1 protein (Homo sapiens, UniProt Q96Q15); experiment: Kinativ assay; type: binding; details: 100 nM run in duplicate
Chain of SMG1 protein (Q96Q15 whole entry): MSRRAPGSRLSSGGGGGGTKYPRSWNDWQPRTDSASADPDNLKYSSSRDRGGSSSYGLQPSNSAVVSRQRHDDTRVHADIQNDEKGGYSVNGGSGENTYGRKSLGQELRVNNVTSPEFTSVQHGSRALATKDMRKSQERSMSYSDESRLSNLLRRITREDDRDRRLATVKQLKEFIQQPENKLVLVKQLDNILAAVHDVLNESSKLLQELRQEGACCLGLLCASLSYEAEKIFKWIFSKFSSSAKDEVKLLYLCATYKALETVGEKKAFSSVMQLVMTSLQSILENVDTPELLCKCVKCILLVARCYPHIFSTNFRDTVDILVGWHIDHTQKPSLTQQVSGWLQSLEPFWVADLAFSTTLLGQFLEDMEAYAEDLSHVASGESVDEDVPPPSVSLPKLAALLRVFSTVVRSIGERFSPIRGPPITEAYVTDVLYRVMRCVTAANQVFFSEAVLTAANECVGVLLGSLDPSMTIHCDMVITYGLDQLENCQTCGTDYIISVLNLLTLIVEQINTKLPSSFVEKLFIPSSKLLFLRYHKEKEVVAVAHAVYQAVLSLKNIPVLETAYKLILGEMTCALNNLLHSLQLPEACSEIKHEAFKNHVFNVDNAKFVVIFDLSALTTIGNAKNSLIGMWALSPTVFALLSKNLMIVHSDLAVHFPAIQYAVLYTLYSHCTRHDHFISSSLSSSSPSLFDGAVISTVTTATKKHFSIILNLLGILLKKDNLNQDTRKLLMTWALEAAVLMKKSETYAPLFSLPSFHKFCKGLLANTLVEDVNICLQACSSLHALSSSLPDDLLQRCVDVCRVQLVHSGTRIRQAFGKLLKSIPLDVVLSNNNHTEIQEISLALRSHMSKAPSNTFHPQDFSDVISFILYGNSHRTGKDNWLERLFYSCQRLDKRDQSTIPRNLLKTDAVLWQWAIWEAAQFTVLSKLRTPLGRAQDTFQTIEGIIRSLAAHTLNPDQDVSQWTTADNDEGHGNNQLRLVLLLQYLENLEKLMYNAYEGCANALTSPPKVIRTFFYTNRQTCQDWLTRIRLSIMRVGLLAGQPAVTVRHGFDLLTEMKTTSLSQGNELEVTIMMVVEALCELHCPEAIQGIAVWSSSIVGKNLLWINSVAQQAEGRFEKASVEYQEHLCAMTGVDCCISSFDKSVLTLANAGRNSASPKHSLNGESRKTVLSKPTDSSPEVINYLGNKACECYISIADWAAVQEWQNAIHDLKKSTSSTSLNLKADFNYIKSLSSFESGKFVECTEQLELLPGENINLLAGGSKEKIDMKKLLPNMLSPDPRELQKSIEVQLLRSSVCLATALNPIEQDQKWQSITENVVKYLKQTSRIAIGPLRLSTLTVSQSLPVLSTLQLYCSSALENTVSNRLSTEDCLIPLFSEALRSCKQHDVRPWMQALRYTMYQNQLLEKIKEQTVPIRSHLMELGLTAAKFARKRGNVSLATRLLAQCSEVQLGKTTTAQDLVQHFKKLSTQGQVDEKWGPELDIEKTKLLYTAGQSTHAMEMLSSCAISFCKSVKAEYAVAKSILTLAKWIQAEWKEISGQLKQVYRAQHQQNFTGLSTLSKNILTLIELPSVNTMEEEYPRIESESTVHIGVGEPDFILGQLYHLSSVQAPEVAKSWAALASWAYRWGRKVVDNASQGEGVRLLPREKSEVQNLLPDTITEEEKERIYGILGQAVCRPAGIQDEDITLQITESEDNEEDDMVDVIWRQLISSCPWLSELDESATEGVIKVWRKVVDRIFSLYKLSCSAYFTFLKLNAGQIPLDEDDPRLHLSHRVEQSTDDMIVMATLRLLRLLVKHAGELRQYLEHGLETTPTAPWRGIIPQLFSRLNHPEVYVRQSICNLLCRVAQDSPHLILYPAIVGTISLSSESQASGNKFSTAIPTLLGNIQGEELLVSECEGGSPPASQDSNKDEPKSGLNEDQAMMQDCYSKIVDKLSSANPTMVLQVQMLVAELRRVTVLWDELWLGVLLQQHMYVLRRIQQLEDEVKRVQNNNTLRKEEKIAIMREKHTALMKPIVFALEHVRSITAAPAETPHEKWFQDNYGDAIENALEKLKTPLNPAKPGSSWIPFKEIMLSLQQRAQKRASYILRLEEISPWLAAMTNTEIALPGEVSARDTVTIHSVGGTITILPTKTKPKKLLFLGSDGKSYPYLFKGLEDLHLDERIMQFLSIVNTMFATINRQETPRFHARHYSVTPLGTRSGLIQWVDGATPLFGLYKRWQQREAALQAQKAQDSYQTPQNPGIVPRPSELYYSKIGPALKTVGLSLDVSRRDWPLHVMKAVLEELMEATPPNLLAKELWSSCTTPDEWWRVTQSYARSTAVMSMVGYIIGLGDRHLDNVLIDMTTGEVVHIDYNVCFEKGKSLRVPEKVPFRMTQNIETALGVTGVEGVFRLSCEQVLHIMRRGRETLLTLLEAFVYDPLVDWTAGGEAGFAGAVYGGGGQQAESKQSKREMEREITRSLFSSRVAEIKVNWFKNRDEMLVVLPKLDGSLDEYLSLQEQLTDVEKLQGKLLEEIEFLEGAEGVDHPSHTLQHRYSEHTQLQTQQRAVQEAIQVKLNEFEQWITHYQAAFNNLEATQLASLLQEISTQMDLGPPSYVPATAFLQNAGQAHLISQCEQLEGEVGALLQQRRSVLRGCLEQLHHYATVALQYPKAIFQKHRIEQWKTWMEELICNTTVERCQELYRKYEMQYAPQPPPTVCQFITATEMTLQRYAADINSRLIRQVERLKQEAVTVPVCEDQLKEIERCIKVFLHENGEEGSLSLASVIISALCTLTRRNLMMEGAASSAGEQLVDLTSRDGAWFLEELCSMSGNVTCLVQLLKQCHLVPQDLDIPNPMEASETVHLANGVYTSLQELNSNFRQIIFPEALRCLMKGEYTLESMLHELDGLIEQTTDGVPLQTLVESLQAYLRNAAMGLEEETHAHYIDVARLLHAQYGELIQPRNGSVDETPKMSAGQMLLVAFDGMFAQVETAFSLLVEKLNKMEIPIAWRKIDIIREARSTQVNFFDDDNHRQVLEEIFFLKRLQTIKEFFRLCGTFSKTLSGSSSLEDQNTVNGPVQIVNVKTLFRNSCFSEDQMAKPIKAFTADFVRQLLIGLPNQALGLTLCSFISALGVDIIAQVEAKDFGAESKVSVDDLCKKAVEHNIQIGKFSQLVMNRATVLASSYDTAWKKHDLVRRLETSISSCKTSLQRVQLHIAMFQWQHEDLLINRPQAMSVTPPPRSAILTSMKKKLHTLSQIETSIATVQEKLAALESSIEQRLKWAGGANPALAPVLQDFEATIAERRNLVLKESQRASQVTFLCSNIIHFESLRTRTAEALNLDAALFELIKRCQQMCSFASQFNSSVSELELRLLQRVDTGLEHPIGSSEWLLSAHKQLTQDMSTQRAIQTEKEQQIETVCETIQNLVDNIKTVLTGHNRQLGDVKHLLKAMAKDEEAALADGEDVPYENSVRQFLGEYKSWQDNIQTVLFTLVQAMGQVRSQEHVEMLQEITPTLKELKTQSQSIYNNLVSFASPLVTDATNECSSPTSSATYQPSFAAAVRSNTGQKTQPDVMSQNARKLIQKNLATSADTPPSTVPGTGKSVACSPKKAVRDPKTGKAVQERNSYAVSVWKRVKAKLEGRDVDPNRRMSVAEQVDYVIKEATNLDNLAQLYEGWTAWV

[11] = tested on: phosphorylated UPF1; experiment: Phospho-UPF1 specific western blot; type: cell-based; details: three different cell lines
Procedure: as §2, §3

[12] = tested on: nonsense mediated decay (NMD); experiment: Targeted RNA sequencing of heterozygous indel mutations in NCI-H358 and LS180 cells; type: cell-based; details: NCI-H358 and LS180 cells treated in-vitro
Source text: as §1, §2, §3

SMILES: CNC(=O)Nc1ccc(-c2cc(-c3ccnc(Nc4ccc(Cl)c(S(=O)(=O)N5CCNCC5)c4)n3)ccn2)cc1 [compound of Formula I]
- toxicity related behavior (e.g., hunching, lethargy) ([1]; doses up to 50 mg/kg): did not show any toxicity related behavior
- mutant transcript levels in tumors relative to untreated mice ([1]; intraperitoneal (IP)): increases in mutant transcript levels
- cell surface MHC presentation of mutant specific neoantigen [2]: presence of a neoantigen specific to the mutant alleles of two genes in NCI-H358 and two other genes in LS180 cells
- cell killing [3]: cell killing only in cells with HLA-A24 present
- physical properties related to solubility [4]: more desirable physical properties related to solubility
- weight loss ([5]; C57BL/6N background): No weight loss
- tumor growth ([5]; C57BL/6N mice, 30 mg/kg): Significant slowing of tumor growth
- tumor growth in immunosuppressed mice ([5]; immunodeficient C57BL/6N SCID mice): minimal or no difference in cell growth
- tumor volume [6]: showed a change in tumor volume
- mutant protein expression (western blot) [7]: induce expression of the NMD targeted mutant protein
- weight loss ([8]; BALB/c background, within tolerable limits): Some weight loss
- tumor growth ([8]; BALB/c mice, 20 mg/kg): Significant slowing of tumor growth
- tumor growth in immunosuppressed mice ([8]; immunodeficient NSG (BALB/c) mice): minimal or no difference in cell growth
- interferon gamma release ([9]; with bispecific antibody and human CD8+ T-cells): increase in interferon gamma release
- interferon gamma levels ([9]; without bispecific antibody): no change in interferon gamma levels
- specificity for SMG1 over other kinases [10]: maintains high specificity for SMG1 protein over other kinases
- amount of phosphorylated UPF1 [11]: strongly decreased the amount of phosphorylated UPF1
- bioactive concentration range (dose response curves) [12]: bioactive in the nanomolar range
